These results are taken from ChEMBL document CHEMBL4823310, “Small Molecule Inhibitors of KRAS G12C Mutant” (ACS Med Chem Lett, 2021).

Test [1] can be described thus: Inhibition of ERK phosphorylation in human NCI-H358 cells incubated for 2 hrs by cellular assay. It counts as cell-based. To be noted: NCI-H358, 2 h.
The target in a further test is GTPase KRas (Homo sapiens, UniProt P01116, C118S/C51S/C80L/G12C). As to the kind of experiment: Inhibition of biotinylated KRAS G12C/C51S/C80L/C118S mutant (unknown origin) pretreated for 60 mins followed by recombinant SOS addition by SOS-catalyzed nucleotide exchange-based TR-FRET analysis. (In general: TR-FRET usually uses a lanthanide donor and a delayed reading to cut background.)
Chain of GTPase KRas (P01116 whole entry G12C/C51S/C80L/C118S): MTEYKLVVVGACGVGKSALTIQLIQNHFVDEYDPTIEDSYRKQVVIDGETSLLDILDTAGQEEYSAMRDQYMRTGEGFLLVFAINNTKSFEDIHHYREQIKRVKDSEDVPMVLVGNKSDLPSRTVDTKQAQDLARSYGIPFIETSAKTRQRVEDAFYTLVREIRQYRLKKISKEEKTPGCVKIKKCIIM

On to `C=CC(=O)N1C[C@H](C)N(c2nc(=O)n3c4nc(c(Cl)cc24)-c2c(ccc(F)c2F)OCCCc2ncnc(C(C)C)c2-3)C[C@H]1C`, for which the IC50 (in general, the concentration that inhibits the measured activity by half) in test [1] is 3.6 nM.
`C=CC(=O)N1C[C@H](C)N(c2nc(=O)n3c4nc(c(F)cc24)-c2c(Cl)cccc2OCCCc2ccnc(C(C)C)c2-3)C[C@H]1C`: the 50% inhibitory concentration (IC50) in test [1] is 3.6 nM.
For `[2H]C1([2H])Oc2ccc(F)c(F)c2-c2nc3c(cc2Cl)c(N2C[C@@H](C)N(C(=O)C=C)C[C@@H]2C)nc(=O)n3-c2c(ccnc2C(C)C)OC1([2H])[2H]`, the 50% inhibitory concentration (IC50) in test [1] was 6.1 nM; on GTPase KRas, 0.51 nM.
As for `C=CC(=O)N1CCN(c2nc(=O)n3c4nc(c(Cl)cc24)-c2c(F)cccc2OCC(F)(F)CCc2ccnc(C(C)C)c2-3)[C@@H](C)C1`, the half-maximal inhibitory concentration (IC50) in test [1] amounted to 3 nM; on GTPase KRas, 0.56 nM.
Molecule `C=CC(=O)N1C[C@H](C)N(c2nc(=O)n3c4nc(c(F)cc24)-c2c(ccc(F)c2F)OCCC(C)c2ccnc(C(C)C)c2-3)C[C@H]1C` (stereo partly drawn) returned an IC50 in test [1] of 6.8 nM.
On to `C=CC(=O)N1C[C@H](C)N(c2nc(=O)n3c4nc(c(F)cc24)-c2c(F)cccc2OCCCc2ccnc(C(C)C)c2-3)C[C@H]1C`, for which half-maximal inhibition in test [1] (IC50) was put at 8.8 nM.
For `C=CC(=O)N1CCN(c2nc(=O)n3c4nc(c(F)cc24)-c2c(F)cccc2OCCCc2ccnc(C(C)C)c2-3)[C@@H](C)C1`, the 50% inhibitory concentration (IC50) turned out to be 6.7 nM in test [1] and 4.3 nM on GTPase KRas.
For `C=CC(=O)N1CCN(c2nc(=O)n3c4nc(c(F)cc24)-c2c(F)cccc2OCCCCc2ccnc(C(C)C)c2-3)[C@@H](C)C1`, the IC50 in test [1] was 1.5 nM; on GTPase KRas, 2.4 nM.
In test [1], `C=CC(=O)N1C[C@H](C)N(c2nc(=O)n3c4nc(c(F)cc24)-c2c(F)cccc2OCCCCc2ccnc(C(C)C)c2-3)C[C@H]1C` registered a half-inhibitory concentration (IC50) of 2.2 nM.
`C=CC(=O)N1C[C@H](C)N(c2nc(=O)n3c4nc(c(Cl)cc24)-c2c(F)ccc(F)c2OCCOc2ccnc(C(C)C)c2-3)C[C@H]1C`: the results for the IC50 (in test [1]; on GTPase KRas) were 4.4 nM and 1.1 nM, respectively.
Regarding `C=CC(=O)N1C[C@H](C)N(c2nc(=O)n3c4nc(c(Cl)cc24)-c2c(F)cccc2OCCc2ccnc(C(C)C)c2-3)C[C@H]1C`, the IC50 in test [1] was determined as 5.1 nM; at GTPase KRas it was 2.6 nM.
`C=CC(=O)N1C[C@H](C)N(c2nc(=O)n3c4nc(c(Cl)cc24)-c2c(F)cccc2OCC(F)(F)COc2ccnc(C(C)C)c2-3)C[C@H]1C` had a concentration for half-maximal inhibition (IC50) in test [1] of 6.1 nM.
